Reference: ChEMBL document CHEMBL3526156, “Bioactivation of the cancer chemopreventive agent tamoxifen to quinone methides by cytochrome P4502B6 and identification of the modified residue on the apoprotein” (Drug Metab Dispos, 2012)

Experiments:
Type in all cases: ADME
Cytochrome P450 2B6 [1] = target: T1, Cytochrome P450 2B6 (Homo sapiens, UniProt P20813); test: Inactivation of CYP2B6 (unknown origin) expressed in Escherichia coli C41 DE3 cells assessed as modified apo-P450 2B6 adduct formation at 60 uM after 10 mins by ESI-LC-MS analysis in presence of NADPH
T1 sequence (P20813 whole entry): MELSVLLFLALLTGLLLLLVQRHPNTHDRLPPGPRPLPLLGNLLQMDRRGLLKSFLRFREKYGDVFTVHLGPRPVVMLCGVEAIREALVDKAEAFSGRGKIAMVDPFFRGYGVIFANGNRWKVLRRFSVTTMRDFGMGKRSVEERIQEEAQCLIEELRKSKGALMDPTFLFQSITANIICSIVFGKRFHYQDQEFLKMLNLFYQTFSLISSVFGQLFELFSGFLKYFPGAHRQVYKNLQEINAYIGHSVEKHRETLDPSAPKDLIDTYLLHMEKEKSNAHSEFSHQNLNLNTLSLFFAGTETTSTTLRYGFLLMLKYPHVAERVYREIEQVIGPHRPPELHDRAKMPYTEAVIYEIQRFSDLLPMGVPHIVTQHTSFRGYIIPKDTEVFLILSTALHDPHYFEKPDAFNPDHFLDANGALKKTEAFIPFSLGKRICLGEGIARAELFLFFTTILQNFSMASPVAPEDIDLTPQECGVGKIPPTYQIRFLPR

Cytochrome P450 2B6 [2] = target: T1, Cytochrome P450 2B6; test: Inactivation of CYP2B6 (unknown origin) expressed in Escherichia coli C41 DE3 cells assessed as modified apo-P450 2B6 adduct formation at 60 uM by ESI-LC-MS analysis in presence of NADPH and GSHEE
Cytochrome P450 2B6 [3] = target: T1, Cytochrome P450 2B6; test: Activity at CYP2B6 (unknown origin) expressed Escherichia coli C41 DE3 cells assessed as enzyme-mediated 4-hydroxytamoxifen quinone methide metabolite formation by measuring reactive metabolite adduct with GSHEE at 90 uM by LC-MS/MS analysis
Cytochrome P450 2B6 [4] = target: T1, Cytochrome P450 2B6; test: Activity at CYP2B6 (unknown origin) expressed Escherichia coli C41 DE3 cells assessed as compound formation by measuring retention time treated with tamoxifen at 60 uM by LC-MS/MS analysis
Cytochrome P450 2B6 [5] = target: T1, Cytochrome P450 2B6; test: Activity at CYP2B6 (unknown origin) expressed Escherichia coli C41 DE3 cells assessed as compound formation by measuring retention time treated with 4-hydroxytamoxifen at 90 uM by LC-MS/MS analysis
[6] = Drug metabolism in human liver microsomes assessed as compound formation by measuring retention time at 90 uM by LC-MS/MS analysis

For `CC/C(=C(\c1ccccc1)c1ccc(OCCN(C)C)cc1)c1ccccc1` [TAMOXIFEN], the Activity (Cytochrome P450 2B6 [1]) was “Active” and the Activity (Cytochrome P450 2B6 [2]) was “Active”.

Compound `CCC(=C(c1ccc(O)cc1)c1ccc(OCCN(C)C)cc1)c1ccccc1` has a Retention time (Cytochrome P450 2B6 [3]) of 16.9 min.

For `C/C=C(/C(=C1C=CC(=O)C=C1)c1ccc(OCCN(C)C)cc1)c1ccccc1`, the Retention_time (Cytochrome P450 2B6 [4]) was 18.3 min, the Retention_time (Cytochrome P450 2B6 [5]) was 16.9 min and the Retention_time [6] was 16.6 min.
